Values quoted from earlier work as cited in patent US20050096371A1, “Topical pharmaceutical compositions” (priority 2003, published 2005).

Columns and labels:
human subjects = conditions: repeated insult patch test, 50 human subjects, total of 15 applications; manufacturer's brochure
humans = conditions: Marzulli and Maibach's method

Row | PII (rabbit skin) | Structure (SMILES) | irritation to rabbit skin (rabbit skin) | primary dermal irritation / sensitization (human subjects) | cutaneous irritation (rabbits) | cutaneous irritation / sensitization (humans)
1 | 0.5 | CN1CCCC1=O [Pharmasolve®, N-methyl-2-pyrrolidone] | practically nonirritating | neither a primary dermal irritant nor a sensitizer | – | –
2 | – | CCOCCOCCO [Transcutol®, diethylene glycol monoethyl ether] | – | – | nonirritating | nonirritating and non-sensitizing
